One test concerns the target T1, Human Nav1.8 (Homo sapiens, UniProt Q9Y5Y9).
T1 construct: expressed in transfected cells
Description: VIPR assay for Nav1.8 (FRET membrane potential, deltamethrin as opener). Format: cell-based. To be noted: for pIC50: HEK293 cells expressing human Nav1.8, average of replicates; for Selectivity Ratio: TTX-S IC50 / NaV1.8 IC50.

Test [1] deals with tetrodotoxin-sensitive voltage-gated sodium channels including NaV1.2, NaV1.3 and NaV1.7 (SHSY-5Y cell line). As to the kind of experiment: TTX-S assay in SHSY-5Y cell line (VIPR procedure, veratridine as opener). It is filed as cell-based. To be noted: read-out: TTX-S IC50, SHSY-5Y cells, veratridine 50 μM, average of replicates.
[2] abbreviates: automated dissolution procedure.

The values below come from patent US7572797B2, “Amino substituted pyrazine derivatives for the treatment of pain” (Pfizer Inc., priority 2005, dated 2009).

Structures are written as SMILES. pIC50: −log10 of the molar value. Read-outs that look alike come from different tables or passages of the source. Bounds are passed on as bounds.

As a reminder, the pIC50 is −log10 of the IC50, conventionally taken in molar units.

T1 sequence (Q9Y5Y9 whole entry): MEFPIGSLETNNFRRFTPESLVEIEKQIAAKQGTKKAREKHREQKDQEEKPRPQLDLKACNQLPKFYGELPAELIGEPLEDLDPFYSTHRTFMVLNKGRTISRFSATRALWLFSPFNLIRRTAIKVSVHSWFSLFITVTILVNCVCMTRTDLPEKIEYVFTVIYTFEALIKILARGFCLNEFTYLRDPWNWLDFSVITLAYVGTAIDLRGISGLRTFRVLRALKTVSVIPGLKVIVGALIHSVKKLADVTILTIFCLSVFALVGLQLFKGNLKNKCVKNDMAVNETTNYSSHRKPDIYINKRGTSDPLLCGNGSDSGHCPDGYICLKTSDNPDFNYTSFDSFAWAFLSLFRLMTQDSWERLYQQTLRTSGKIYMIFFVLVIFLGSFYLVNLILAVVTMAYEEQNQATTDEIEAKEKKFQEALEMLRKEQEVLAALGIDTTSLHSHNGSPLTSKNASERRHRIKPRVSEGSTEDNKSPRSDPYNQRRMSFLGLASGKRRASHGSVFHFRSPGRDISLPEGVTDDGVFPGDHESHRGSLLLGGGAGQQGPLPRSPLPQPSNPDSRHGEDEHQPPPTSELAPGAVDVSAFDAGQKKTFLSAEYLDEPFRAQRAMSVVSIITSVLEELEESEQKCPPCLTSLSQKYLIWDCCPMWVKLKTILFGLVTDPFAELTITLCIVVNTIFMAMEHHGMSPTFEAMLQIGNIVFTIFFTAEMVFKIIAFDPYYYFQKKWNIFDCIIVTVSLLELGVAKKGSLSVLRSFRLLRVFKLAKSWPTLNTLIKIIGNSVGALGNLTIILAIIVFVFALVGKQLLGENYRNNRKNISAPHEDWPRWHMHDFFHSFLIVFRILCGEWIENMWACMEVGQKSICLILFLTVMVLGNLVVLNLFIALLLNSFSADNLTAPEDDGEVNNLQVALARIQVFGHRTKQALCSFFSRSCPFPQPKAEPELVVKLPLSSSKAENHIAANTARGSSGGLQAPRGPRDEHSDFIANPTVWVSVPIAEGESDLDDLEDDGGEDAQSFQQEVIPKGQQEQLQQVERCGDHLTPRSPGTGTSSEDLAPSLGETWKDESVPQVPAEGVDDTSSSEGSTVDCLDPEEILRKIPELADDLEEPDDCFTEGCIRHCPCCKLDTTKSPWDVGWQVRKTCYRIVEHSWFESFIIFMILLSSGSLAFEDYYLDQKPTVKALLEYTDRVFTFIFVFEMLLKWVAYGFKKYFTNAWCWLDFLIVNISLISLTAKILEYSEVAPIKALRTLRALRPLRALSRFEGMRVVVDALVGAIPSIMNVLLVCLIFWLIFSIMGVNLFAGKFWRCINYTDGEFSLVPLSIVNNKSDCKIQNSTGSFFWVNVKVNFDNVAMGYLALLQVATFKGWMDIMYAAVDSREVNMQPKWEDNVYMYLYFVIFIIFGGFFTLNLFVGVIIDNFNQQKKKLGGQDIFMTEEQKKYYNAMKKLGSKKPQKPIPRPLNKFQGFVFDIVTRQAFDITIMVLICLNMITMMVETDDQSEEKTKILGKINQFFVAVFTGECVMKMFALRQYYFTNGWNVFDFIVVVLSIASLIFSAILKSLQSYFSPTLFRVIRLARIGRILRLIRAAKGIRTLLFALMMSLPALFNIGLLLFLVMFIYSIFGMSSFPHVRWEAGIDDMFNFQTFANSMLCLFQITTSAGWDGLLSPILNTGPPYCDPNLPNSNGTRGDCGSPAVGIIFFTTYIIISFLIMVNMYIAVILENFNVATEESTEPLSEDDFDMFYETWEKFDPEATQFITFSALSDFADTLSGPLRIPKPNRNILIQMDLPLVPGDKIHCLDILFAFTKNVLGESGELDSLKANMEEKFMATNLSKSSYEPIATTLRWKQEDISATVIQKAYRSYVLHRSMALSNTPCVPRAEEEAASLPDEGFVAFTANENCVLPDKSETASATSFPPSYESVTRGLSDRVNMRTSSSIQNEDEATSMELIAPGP

Take `Cc1nocc1C(=O)Nc1cnc(-c2ccccc2Cl)c(N)n1` [Example 16, N-[6-amino-5-(2-chlorophenyl)pyrazin-2-yl]-3-methylisoxazole-4-carboxamide]: the figures for the pIC50 (on Human Nav1.8 (setting [2]); in test [1] (setting [2])) were 6.00 and less than 4.62, respectively. In addition, on Human Nav1.8 (setting [2]), the “Selectivity Ratio” value is greater than 23.6.
On the same counts, the results for `Cc1nonc1C(=O)Nc1cnc(-c2cc(Cl)ccc2Cl)c(N)n1` [Example 23, N-[6-amino-5-(2,5-dichlorophenyl)pyrazin-2-yl]-4-methyl-1,2,5-oxadiazole-3-carboxamide] are 5.09, less than 4.55 and greater than 3.54.
For `COc1cc(Cl)c(Cl)c(-c2ncc(NC(=O)c3ccnn3C)nc2N)c1` [Example 12, N-[6-Amino-5-(2,3-dichloro-5-methoxyphenyl)pyrazin-2-yl]-1-methyl-1H-pyrazole-5-carboxamide], in that order: 5.88, 4.78 and 12.67.
Regarding `Nc1nc(NC(=O)c2ccn[nH]2)cnc1-c1cc(Cl)ccc1Cl` [Example 62, N-[6-amino-5-(2,5-dichlorophenyl)pyrazin-2-yl]-1H-pyrazole-5-carboxamide], the pIC50 (at Human Nav1.8 (setting [2]); in test [1] (setting [2])) was less than 4.52 each time.
With `COCCn1nccc1C(=O)Nc1cnc(-c2ccccc2Cl)c(N)n1` [Example 56, N-[6-amino-5-(2-chlorophenyl)pyrazin-2-yl]-1-(2-methoxyethyl)-1H-pyrazole-5-carboxamide], the pIC50 is less than 4.57 against Human Nav1.8 (setting [2]) and less than 4.52 in test [1] (setting [2]).
Turning to `COc1cc(Cl)cc(-c2ncc(NC(=O)c3cnoc3C)nc2N)c1Cl` [Example 13, N-[6-amino-5-(2,5-dichloro-3-methoxyphenyl)pyrazin-2-yl]-5-methylisoxazole-4-carboxamide], on Human Nav1.8 (setting [2]), the pIC50 was 4.98 and the “Selectivity Ratio” value is reported as greater than 2.48. Moreover, the pIC50 in test [1] (setting [2]) was less than 4.59.
For `Cn1nccc1C(=O)Nc1cnc(-c2cc(C#N)ccc2Cl)c(N)n1` [Example 11, N-[6-amino-5-(2-chloro-5-cyanophenyl)pyrazin-2-yl]-1-methyl-1H-pyrazole-5-carboxamide], in that order: 5.35, greater than 6.76 and less than 4.52.
On the same counts, the results for `COc1cc(Cl)cc(-c2ncc(NC(=O)c3cnoc3)nc2N)c1Cl` [Example 48, N-[6-amino-5-(2,5-dichloro-3-methoxyphenyl)pyrazin-2-yl]isoxazole-4-carboxamide] are 5.09, greater than 3.75 and less than 4.52.
As to `Cn1nccc1C(=O)Nc1cnc(-c2cc(Cl)cc(Cl)c2Cl)c(N)n1` [Example 1, N-[6-Amino-5-(2,3,5-trichlorophenyl)pyrazin-2-yl]-1-methyl-1H-pyrazole-5-carboxamide], at Human Nav1.8 (manual dissolution procedure), the pIC50 is 6.01 and the “Selectivity Ratio” value is given as 11.4. Further, the pIC50 in test [1] (manual dissolution procedure) was 4.95.
Consider `Cc1nonc1C(=O)Nc1cnc(-c2ccccc2Cl)c(N)n1` [Example 55, N-[6-amino-5-(2-chlorophenyl)pyrazin-2-yl]-4-methyl-1,2,5-oxadiazole-3-carboxamide], for which, on Human Nav1.8 (setting [2]), the pIC50 was less than 4.67 and the “Selectivity Ratio” value is “->1.40”. Further, the pIC50 in test [1] (setting [2]) is less than 4.52.
For `Cc1oncc1C(=O)Nc1cnc(-c2ccccc2Cl)c(N)n1` [Example 50, N-[6-amino-5-(2-chlorophenyl)pyrazin-2-yl]-5-methylisoxazole-4-carboxamide], in that order: 4.99, greater than 2.90 and less than 4.52.
Turning to `COc1ccc(Cl)c(-c2ncc(NC(=O)c3cnoc3C)nc2N)c1` [Example 15, N-[6-amino-5-(2-chloro-5-methoxyphenyl)pyrazin-2-yl]-5-methylisoxazole-4-carboxamide], the pIC50 (on Human Nav1.8 (setting [2]); in test [1] (setting [2])) was less than 4.52 each time.
With `Cn1nccc1C(=O)Nc1cnc(-c2cc(Cl)cc3c2OCCO3)c(N)n1` [Example 3, N-[6-Amino-5-(7-chloro-2,3-dihydro-1,4-benzodioxin-5-yl)pyrazin-2-yl]-1-methyl-1H-pyrazole-5-carboxamide], at Human Nav1.8 (setting [2]), the pIC50 was 4.82 and the “Selectivity Ratio” value is greater than 1.89. Also, the pIC50 in test [1] (setting [2]) is less than 4.54.
For `COc1ccc(Cl)c(-c2ncc(NC(=O)c3ccno3)nc2N)c1` [Example 32, N-[6-amino-5-(2-chloro-5-methoxyphenyl)pyrazin-2-yl]isoxazole-5-carboxamide], in that order: 5.21, greater than 4.93 and less than 4.52.
`Cc1nocc1C(=O)Nc1cnc(-c2cc(Cl)cc3c2OCCO3)c(N)n1` [Example 21, N-[6-amino-5-(7-chloro-2,3-dihydro-1,4-benzodioxin-5-yl)pyrazin-2-yl]-3-methylisoxazole-4-carboxamide]: at Human Nav1.8 (setting [2]), the pIC50 is 5.32 and the “Selectivity Ratio” value is on record as 4.35. Besides, in test [1] (setting [2]), the pIC50 is 4.68.
On the same counts, the results for `Cc1nonc1C(=O)Nc1cnc(-c2cccc3ccccc23)c(N)n1` [Example 44, N-[6-amino-5-(1-naphthyl)pyrazin-2-yl]-4-methyl-1,2,5-oxadiazole-3-carboxamide] are 4.78, greater than 1.67 and less than 4.56.
